Values quoted from earlier work, collected in patent publication US20110033536A1, “24-HOUR SUSTAINED-RELEASE METOCLOPRAMIDE” (POSIVISIONARY SOLUTIONS LLP, priority 2008, published 2011).

CCN(CC)CCNC(=O)c1cc(Cl)c(N)cc1OC [metoclopramide]
Plasma concentrations at which undesirable side effects (akathisia) are present (literature (Bateman 1979; Parlak 2005)): above 100 nanograms per milliliter | Plasma concentrations related to extrapyramidal effects (akathisia) (relationship stated as determined, no own test): above 120 ng/ml
